# Measured values: article PMC9166630, “SAR Probing of KX2-391 Provided Analogues With Juxtaposed Activity Profile Against Major Oncogenic Kinases” (Frontiers in Oncology, 2022)
# What was measured:
# [1] = test system: PDGFR[beta]; assay: PamChip tyrosine kinase microarray, PDGFR[beta]; type: biochemical, human; conditions: 4e 0.1 µM, HL60 lysate
# Procedure: (§1) The changes in kinase activities induced by treatment with 4e were monitored within the HL60 cell lines using PamGene’s (Hertogenbosch, Netherlands) PamChip® peptide microarray profiler, which quantifies the activities of 144 tyrosine kinases (YK) ([29], [30]) (Figure 7). Results are provided as a log fold change (LFC) heatmap and Mean Kinase Statistic. From the LFC it is apparent that compound 4e, at a concentration of 0.1 µM, induced sizable changes to the activity of several kinases within the cell signaling YK profile (Figure 7A).
# (§2) An Upstream Kinase tool was used to generate a putative list of kinases responsible for phosphorylating the phospho-sites on the PamChip (Figure 7B) ([31]). It is an interpretation and is highly dependent on the contents of the underlying phosphorylation databases. A Kinase Score was used for ranking kinases based on their significance and specificity in terms of the set of peptides used for the corresponding kinase. Kinase Statistics indicates the overall change of the peptide set that represents the kinase. Kinase statistics value <0 indicates lower kinase activity in the compound spiked lysate and vice versa ([32], [33]). Table 5 lists the 20 most changed kinases within treated HL60 cell lysates by 0.1 μM 4e, ranked according to their Kinase Score.
# (§3) The compound 4e was spiked into HL60 cell lysate at different concentrations (0.001, 0.01, 0.1, 1, 10 and 50 μM). In addition, DMSO was also spiked in HL60 lysate at low concentration (2% v/v) as control. Samples were profiled on PamGene’s Tyrosine Kinase (PTK) arrays in technical replicates, covering a total of 196 phosphorylation sites. Frozen HL60 cultured cell pellet was sent to PamGene. At PamGene, cells were lysed using a lysis buffer and proteases inhibitors cocktail. Protein concentration was measured using standard Bradford assay as per PamGene SOPs. These lysates were further used for generating the PTK activity profiles. For spiking, 4e was received as powder form and dissolved in DMSO at PamGene facility followed by storing at -20°C in small aliquots. PamGene used its in-house bioinformatics toolbox in combination with other methods to generate hypotheses of signaling pathways.
# [2] = target: T1, Srm (Homo sapiens, UniProt Q9H3Y6); assay: PamChip tyrosine kinase microarray, Srm; type: biochemical; conditions: 4e 0.1 µM, HL60 lysate
# T1 construct: endogenous in cells; host or cells: HL60 lysate
# Procedure: as §1, §2, §3
# [3] = test system: purified bovine tubulin; assay: Tubulin polymerization assay (turbidimetric); type: biochemical; conditions: theoretical concentration 10 µM, OD 340 nm, 60 min
# Procedure: The effect of compound 4e on tubulin polymerization was investigated using the cell-free assay which assesses the assembly of purified bovine tubulin by a turbidometric method (Figure 5). Tubulin polymerization results in increased turbidity, which is measured as an increase in the optical density (OD).
# Figure 5 Tubulin polymerization assay for compound 4e at 10 µM compared to paclitaxel (10 µM) and KX2-391 (10 µM) as references, while DMSO (1% v/v) was used as a vehicle control. Purified bovine tubulin and GTP were mixed in a 96-well plate. The polymerization reaction was initiated by warming the solution from 4°C to 37°C. The effect on tubulin assembly was monitored by measuring the optical density (OD) at 340 nm every 30 seconds over 60 min period. The results represent the mean for three separate experiments.
# The assembly of purified bovine tubulin was monitored using the Tubulin Polymerization Assay kit, BK006 (Cytoskeleton Inc., Denver, CO, USA). The assay was carried out in accordance with the manufacturer’s instructions in the assay kit manual using the standard assay conditions. The values reported represent the average values from two independent assays. […] Therefore, tubulin assembly was monitored turbidimetrically at 340 nm at 37°C in a Spectramax 340 PC spectrophotometer (Molecular Devices, Sunnyvale, CA, USA). The absorbance was measured at 30 s intervals for 60 min.
# [4] = test system: N87 (stomach) cancer cells; assay: SRB cytotoxicity assay, N87; type: cell-based; conditions: Homo sapiens, 72 h, maximum tested concentration 50 µM, read-out: IC50 ± SEM, N87
# Procedure: MCF7 (breast) or N87 (stomach) cancer cells were grown in Roswell Park Memorial Institute-1640 (RPMI-1640) medium (Thermo Fisher Scientific, Inc; Waltham, MA, USA), supplemented with 10% heat inactivated fetal bovine serum (FBS), 50 units/mL of penicillin and […] of streptomycin and maintained at 37°C in a humidified atmosphere containing 5% CO2. The cells were maintained as “monolayer culture” by serial subculturing.
# Cytotoxicity was determined using Sulforhodamine B (SRB) method as previously described by Skehan et al. ([66]). Exponentially growing MCF7 and N87 cells were collected using 0.25% Trypsin-EDTA and were then seeded in 96-well plates at a density of 1000-2000 cells/well in 10% FBS and penicillin/streptomycin supplemented RPMI-1640 medium. After 24 h, cells were treated with different concentrations of test compounds and incubated for 72 h at 37°C in a humidified atmosphere containing 5% CO2. Next, the cells were fixed by adding trichloroacetic acid (TCA, 10% final conc. in wells) directly to the wells and incubated for 1 h at 4°C, then cells were washed with distilled water 5 times to remove excess TCA, media, serum proteins, and metabolites, followed by air drying. After that, the fixed cells were stained with 0.4% SRB dissolved in 1% acetic acid for 10 min at room temperature, and excess stain was removed by quickly rinsing with 1% acetic acid. The residual acetic acid was removed completely by air drying the plates for 24 h, and the dye was solubilized with Tris buffer (pH= 7.4, 10 mM) for 5 min on a shaker at 1600 rpm. The optical density (OD) of each well was measured spectrophotometrically at 564 nm with an ELISA microplate reader (ChroMate-4300, FL, USA). The IC50 values (concentration of drug resulting in 50% reduction in cell survival) were calculated according to the equation for Boltzman sigmoidal concentration–response curve using the nonlinear regression fitting models (Graph Pad, Prism Version 5).
# [5] = test system: Tyk2; assay: PamChip tyrosine kinase microarray, Tyk2; type: biochemical, human; conditions: 4e 0.1 µM, HL60 lysate
# Procedure: as §1, §2, §3
# T1 sequence (Q9H3Y6 whole entry): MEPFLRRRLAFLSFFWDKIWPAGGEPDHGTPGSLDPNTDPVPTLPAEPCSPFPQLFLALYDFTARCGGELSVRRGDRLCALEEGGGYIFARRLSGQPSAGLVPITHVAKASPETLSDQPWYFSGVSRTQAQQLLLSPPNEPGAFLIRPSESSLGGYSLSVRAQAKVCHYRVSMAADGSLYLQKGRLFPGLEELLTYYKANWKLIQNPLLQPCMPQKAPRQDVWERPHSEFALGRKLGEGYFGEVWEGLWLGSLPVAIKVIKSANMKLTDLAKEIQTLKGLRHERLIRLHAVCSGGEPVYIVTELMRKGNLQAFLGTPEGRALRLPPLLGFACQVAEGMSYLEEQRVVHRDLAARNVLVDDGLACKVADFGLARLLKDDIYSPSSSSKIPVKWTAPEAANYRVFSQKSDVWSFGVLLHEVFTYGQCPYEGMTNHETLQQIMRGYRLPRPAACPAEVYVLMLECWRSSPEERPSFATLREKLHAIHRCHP
smiles,measurement,setting,value
"O=C(Cc1ccc(NC(=O)c2cccc(Cl)c2)cc1)NCc1ccccc1 [Compound 4e, N-(4-(2-(benzylamino)-2-oxoethyl)phenyl)-3-chlorobenzamide]",Mean Final Score,[1],1.8565
same,Mean Kinase Statistic,[1],-0.5885
same,Mean Significance Score,[1],1.2570
same,Mean Specificity Score,[1],0.5995
same,Mean Final Score,[2],2.2692
same,Mean Kinase Statistic,[2],-0.5863
same,Mean Significance Score,[2],1.1518
same,Mean Specificity Score,[2],1.1174
same,effect on tubulin polymerization,[3],did not affect the tubulin polymerization
same,IC50,[4],5.28 ± 0.91 µM
same,Mean Final Score,[5],1.7035
same,Mean Kinase Statistic,[5],-0.6710
same,Mean Significance Score,[5],1.1411
same,Mean Specificity Score,[5],0.5624
